From US8454582B2, “Methods and devices for the treatment of ocular conditions” (Surmodics, Inc., priority 2004, dated 2013)

Assays:
[1] = 72 hours after injection; cited from earlier work
[2] = In vivo elution: HPLC detection of TA in tissues after 4-week subretinal PCL/TA implantation; conditions: four weeks after subretinal implant, PCL/TA 60:40, rabbit

SMILES: C[C@]12C=CC(=O)C=C1CC[C@H]1[C@@H]3C[C@@H](O)[C@](O)(C(=O)CO)[C@@]3(C)C[C@H](O)[C@@]12F [triamcinolone]
- triamcinolone present in the vitreous that is associated with other tissues including the retina, pigment epithelium, and sclera [1]: less than 1%

SMILES: CC1(C)O[C@@H]2C[C@H]3[C@@H]4CCC5=CC(=O)C=C[C@]5(C)[C@@]4(F)[C@@H](O)C[C@]3(C)[C@]2(C(=O)CO)O1 [TA, Triamcinolone acetonide]
- TA in the anterior structures (HPLC) [2]: not detected
- TA in the blood (HPLC) [2]: not detected
- TA in the posterior tissue samples (HPLC) [2]: confirmed the presence
